From the NIST ThermoML archive (doi:10.1021/acs.jced.6b00833)
Numbers after ± are expanded uncertainties.

Conditions: 101.33 kPa, Liquid, Vibrating tube method

Compound	mass density (298.15 K) [kg/m3]	mass density (303.15 K) [kg/m3]	mass density (308.15 K) [kg/m3]	mass density (313.15 K) [kg/m3]	mass density (318.15 K) [kg/m3]	mass density (323.15 K) [kg/m3]	mass density (328.15 K) [kg/m3]	mass density (333.15 K) [kg/m3]	mass density (338.15 K) [kg/m3]	mass density (343.15 K) [kg/m3]	mass density (348.15 K) [kg/m3]	mass density (353.15 K) [kg/m3]	mass density (358.15 K) [kg/m3]	mass density (363.15 K) [kg/m3]	mass density (298.48 K) [kg/m3]	mass density (293.15 K) [kg/m3]
CCCC[P+](C)(CCCC)CCCC.O=C[O-] [tributylmethylphosphonium formate]	950.7 ± 5.9	947.9 ± 5.9	945 ± 5.9	942.1 ± 5.9	939.2 ± 5.8	936.3 ± 5.8	933.5 ± 5.8									
CC(=O)[O-].CCn1cc[n+](C)c1 [1-ethyl-3-methylimidazolium acetate]	1097.83 ± 6.9	1094.72 ± 6.9	1091.64 ± 6.9	1088.57 ± 6.8	1085.52 ± 6.8	1082.49 ± 6.8	1079.48 ± 6.8	1076.48 ± 6.8	1073.49 ± 6.7	1070.51 ± 6.7	1067.55 ± 6.7	1064.6 ± 6.7	1061.66 ± 6.7	1058.74 ± 6.6		
CCCC[N+](C)(C)C.O=S(=O)([N-]S(=O)(=O)C(F)(F)F)C(F)(F)F [butyltrimethylammonium bis(trifluoromethylsulfonyl)imide]															1392.89 ± 8.4	
CCC[N+]1(C)CCCC1.N#CN=C=[N-] [1-methyl-1-propylpyrrolidinium dicyanamide]	1026.76 ± 6.2	1023.9 ± 6.2	1021.05 ± 6.2	1018.22 ± 6.2	1015.41 ± 6.1	1012.62 ± 6.1	1009.85 ± 6.1	1007.08 ± 6.1	1004.33 ± 6.1	1001.6 ± 6.1	998.88 ± 6	996.18 ± 6	993.49 ± 6	990.81 ± 6		
C[S+](C)[O-] [dimethyl sulfoxide]	1095.41 ± 6.6	1090.38 ± 6.5	1085.36 ± 6.5	1080.34 ± 6.5	1075.32 ± 6.5	1070.31 ± 6.4	1065.29 ± 6.4	1060.28 ± 6.4	1055.26 ± 6.3	1050.23 ± 6.3	1045.21 ± 6.3	1040.19 ± 6.2	1035.15 ± 6.2	1030.12 ± 6.2		1100.42 ± 6.6
